Values quoted from earlier work, collected in patent publication US9662296B2, “Pharmaceutical composition comprising bicarbonate salt, and use thereof as a medicament in the treatment and/or prevention of urinary lithiases and related diseases” (ADVICENNE, priority 2010, dated 2017).

Details: high doses (30 to 40 grams per day)

| SMILES | adverse manifestations |
| --- | --- |
| O=C([O-])O.[K+] [potassium bicarbonate] | manifestations of metabolic alkalosis or digestive disorders, mainly diarrhoea |
| O=C([O-])O.[Na+] [sodium bicarbonate] | manifestations of metabolic alkalosis or digestive disorders, mainly diarrhoea |
